Values joined by “and” are separate entries in the source; they are usually repeats but may differ in a detail not shown here. Equal values may be shown once. Read-outs that look alike come from different tables or passages of the source.
Legend:
[1] = system: BaF3 cells expressing FLT3ITD; assay: BaF3 proliferation, colorimetric WST-1 assay; assay type: cell-based, murine; conditions: for proliferation, colorimetric assay: BaF3/FLT3 ITD, 48 hours, replicates; for IC50: Mus musculus
[2] = system: BaF3 cells transduced with Flt3ITD/ITD, with IL3; assay: BaF3 Flt3ITD/ITD proliferation in the presence of IL3 (Supplementary Figure 3A); conditions: replicates
[3] = system: BaF3 cells expressing FLT3ITD-D835Y; assay: BaF3 proliferation, colorimetric WST-1 assay; conditions: for proliferation, colorimetric assay: BaF3/FLT3 ITD-D835Y, 48 hours, replicates; for IC50: Mus musculus, BaF3, read-out: IC50, growth inhibition
[4] = concentration 0.08 (unit not given), listed as Midostuarin
[5] = concentration 0.4 (unit not given), listed as Midostuarin
[6] = concentration 2 (unit not given), listed as Midostuarin
[7] = concentration 10 (unit not given), listed as Midostuarin
[8] = concentration 50 (unit not given), listed as Midostuarin
[9] = concentration 250 (unit not given), listed as Midostuarin
[10] = concentration 0.016 (unit not given)
[11] = concentration 0.4 (unit not given)
[12] = concentration 1000 (unit not given), listed as Midostuarin
[13] = concentration 0.08 (unit not given)
[14] = concentration 2 (unit not given)
[15] = concentration 10 (unit not given)
[16] = concentration 50 (unit not given)
[17] = concentration 250 (unit not given)
[18] = concentration 1000 (unit not given)
[19] = concentration 5000 (unit not given)

CO[C@@H]1[C@H](N(C)C(=O)c2ccccc2)C[C@H]2O[C@]1(C)n1c3ccccc3c3c4c(c5c6ccccc6n2c5c31)C(=O)NC4 [Midostaurin]
proliferation, colorimetric assay ([1]; concentration 0.016 (unit not given), listed as Midostuarin): 100.822 and 110.628 and 104.388 | proliferation, colorimetric assay [1, 4]: 99.3158 and 113.294 and 110.094 and 38.1922 | proliferation, colorimetric assay [1, 5]: 103.096 and 110.499 and 104.386 and 61.929 | proliferation, colorimetric assay [1, 6]: 104.186 and 115.142 and 102.467 and 142.341 | proliferation, colorimetric assay [1, 7]: 37.6324 and 34.6342 and 45.0183 and 96.6129 | proliferation, colorimetric assay [1, 8]: 6.377 and 12.3055 and 3.243 and 9.898 | proliferation, colorimetric assay [1, 9]: 0.5457 and 1.807 and -0.6585 and 0.387 | Supplementary Figure 3A - BaF3-ITD+IL3 proliferation [2, 10]: 91.5686 | Supplementary Figure 3A - BaF3-ITD+IL3 proliferation [2, 11]: 100.9 | Supplementary Figure 3A - BaF3-ITD+IL3 proliferation [2, 6]: 105.72 and 98.3726 and 124.683 | Supplementary Figure 3A - BaF3-ITD+IL3 proliferation [2, 7]: 110.807 and 113.1 and 132.819 | Supplementary Figure 3A - BaF3-ITD+IL3 proliferation [2, 8]: 106.186 and 111.038 and 133.216 | Supplementary Figure 3A - BaF3-ITD+IL3 proliferation [2, 9]: 110.669 and 139.596 | Supplementary Figure 3A - BaF3-ITD+IL3 proliferation [2, 12]: 9.826 and 146.156 | Supplementary Figure 3A - BaF3-ITD+IL3 proliferation ([2]; concentration 5000 (unit not given), listed as Midostuarin): 3.94 and -0.5106 | proliferation, colorimetric assay [3, 10]: 103.305 | proliferation, colorimetric assay [3, 4]: 108.476 and 93.9081 | proliferation, colorimetric assay [3, 5]: 108.102 and 98.6805 and 100.719 | proliferation, colorimetric assay [3, 6]: 111.763 and 100.839 and 106.043 | proliferation, colorimetric assay [3, 7]: 46.6696 and 71.6598 and 33.3064 | proliferation, colorimetric assay [3, 8]: 14.4574 and 14.3192 and 6.786 | proliferation, colorimetric assay [3, 9]: 11.4376 and 9.499 and 3.744 | proliferation, colorimetric assay [3, 12]: 3.105 and 1.155

Cc1ccc(C(=O)Nc2ccc(CN3CCN(C)CC3)c(C(F)(F)F)c2)cc1C#Cc1cnc2cccnn12 [Ponatinib]
proliferation, colorimetric assay [1, 10]: 103.303 and 29.4843 and 104.802 and 107.771 | proliferation, colorimetric assay [1, 13]: 103.551 and 112.425 and 114.204 | proliferation, colorimetric assay [1, 11]: 63.9851 and 109.481 and 101.917 | proliferation, colorimetric assay [1, 14]: 12.349 and 96.4027 and 63.939 and 105.862 | proliferation, colorimetric assay [1, 15]: 7.628 and 22.9278 and 11.2521 and 38.4511 | proliferation, colorimetric assay [1, 16]: 2.92 and 5.376 and 0.7258 and 6.47 | proliferation, colorimetric assay [1, 17]: 5.173 and 2.723 and -0.4582 and 0.3438 | IC50 ([1]; BaF3, read-out: IC50, growth inhibition): 2.54 nM | Supplementary Figure 3A - BaF3-ITD+IL3 proliferation [2, 10]: 100.2 | Supplementary Figure 3A - BaF3-ITD+IL3 proliferation [2, 13]: 100.413 | Supplementary Figure 3A - BaF3-ITD+IL3 proliferation [2, 11]: 94.562 | Supplementary Figure 3A - BaF3-ITD+IL3 proliferation [2, 14]: 103.021 and 110.146 and 131.879 | Supplementary Figure 3A - BaF3-ITD+IL3 proliferation [2, 15]: 104.504 and 106.518 and 133.143 | Supplementary Figure 3A - BaF3-ITD+IL3 proliferation [2, 16]: 106.029 and 102.109 and 134.35 | Supplementary Figure 3A - BaF3-ITD+IL3 proliferation [2, 17]: 109.055 and 106.007 and 134.452 | Supplementary Figure 3A - BaF3-ITD+IL3 proliferation [2, 18]: 75.4094 and 10.3894 | Supplementary Figure 3A - BaF3-ITD+IL3 proliferation [2, 19]: 0.9902 and -0.5808 | proliferation, colorimetric assay [3, 10]: 105.632 | proliferation, colorimetric assay [3, 13]: 110.397 and 108.415 and 100.457 | proliferation, colorimetric assay [3, 11]: 112.735 and 103.362 and 108.642 | proliferation, colorimetric assay [3, 14]: 92.8711 and 101.44 and 100.79 | proliferation, colorimetric assay [3, 15]: 111.954 and 107.659 | proliferation, colorimetric assay [3, 16]: 78.5183 and 101.652 and 95.7414 | proliferation, colorimetric assay [3, 17]: 19.3842 and 49.6264 and 16.1584 | proliferation, colorimetric assay [3, 18]: 2.173 and 0.6094 | IC50 [3]: 162 nM

CNC(=O)c1cc(Oc2ccc(NC(=O)Nc3ccc(Cl)c(C(F)(F)F)c3)cc2)ccn1 [Sorafenib]
proliferation, colorimetric assay [1, 10]: 16.3815 and 107.167 and 106.617 and 105.393 | proliferation, colorimetric assay [1, 13]: 11.5881 and 112.929 and 104.573 and 131.213 | proliferation, colorimetric assay [1, 11]: 10.6541 and 113.594 and 9.4402 and 110.22 | proliferation, colorimetric assay [1, 14]: 98.6784 and 107.329 and 5.2213 and 125.689 | proliferation, colorimetric assay [1, 15]: 18.373 and 31.6289 and 5.419 and 106.507 | proliferation, colorimetric assay [1, 16]: 7.163 and 11.5817 and 3.098 and 23.7431 | proliferation, colorimetric assay [1, 17]: 5.383 and 5.798 and 3.082 and 8.355 | IC50 ([1]; BaF3 FLT3ITD, read-out: IC50, growth inhibition): 0.9 nM | Supplementary Figure 3A - BaF3-ITD+IL3 proliferation [2, 10]: 102.183 | Supplementary Figure 3A - BaF3-ITD+IL3 proliferation [2, 13]: 99.8176 | Supplementary Figure 3A - BaF3-ITD+IL3 proliferation [2, 11]: 106.455 | Supplementary Figure 3A - BaF3-ITD+IL3 proliferation [2, 14]: 107.595 and 105.229 and 115.278 | Supplementary Figure 3A - BaF3-ITD+IL3 proliferation [2, 15]: 111.02 and 105.412 and 136.419 | Supplementary Figure 3A - BaF3-ITD+IL3 proliferation [2, 16]: 101.081 and 115.196 and 123.039 | Supplementary Figure 3A - BaF3-ITD+IL3 proliferation [2, 17]: 102.541 and 117.007 and 139.808 | Supplementary Figure 3A - BaF3-ITD+IL3 proliferation [2, 18]: 122.84 and 135.916 | Supplementary Figure 3A - BaF3-ITD+IL3 proliferation [2, 19]: 77.5171 and 4.823 | proliferation, colorimetric assay [3, 10]: 94.7245 | proliferation, colorimetric assay [3, 13]: 78.2586 and 100.59 and 93.5618 | proliferation, colorimetric assay [3, 11]: 71.3463 and 101.258 and 87.9764 | proliferation, colorimetric assay [3, 14]: 114.498 and 101.128 and 64.2837 | proliferation, colorimetric assay [3, 15]: 112.637 and 109.063 and 80.4355 | proliferation, colorimetric assay [3, 16]: 116.564 and 100.156 and 98.1229 | proliferation, colorimetric assay [3, 17]: 119.18 and 103.897 and 90.2769 | proliferation, colorimetric assay [3, 18]: 83.0213 and 52.2833 | IC50 [3]: 1100 nM
